# Paper PMC10740156, “Discovery of potential WEE1 inhibitors via hybrid virtual screening” (Frontiers in Pharmacology, 2023)
# Where a name gives a salt, the structure may show the parent alone.
# What was measured:
# WEE1 kinase = WEE1 kinase (Homo sapiens, UniProt P30291); test: Inhibitory activity assay (ADP-Glo kinase assay); format: biochemical; conditions: for IC50: WEE1 kinase; for Inhibition Rate / inhibition at 25 µM: compound 25 μM, relative inhibition rate, Staurosporine (10 µM) as positive control
# Protocol: The tested compounds were dissolved in DMSO to make a 10 mM stock solution, which was further diluted to a drug solution of 25 µM. […] Transfer 20 nL compound to 384 assay plate by Echo 655. […] 8 μL of kinase detection reagent was added to the well, and incubated for 40 min at 25°C. Read the RLU (relative light-emitting unit) signal using the BMG multifunction microplate reader, and the signal intensity is used to characterize the degree of kinase activity. […] Staurosporine is a prototypical ATP-competitive kinase inhibitor in that it binds to many kinases with high affinity. The inhibition rates were calculated using the equations (X: log of inhibitor concentration; Y: % Inhibition). Assays were performed on three independent experiments. Y=Bottom+Top – Bottom/(1+10^ (LogIC50 – X×hillslope))
# HuH-7 cells = test: Anti-proliferation activity assay (CCK-8); format: cell-based, human
# Protocol: (§1) Anti-proliferation activity assay was detected by Cell Counting Kit-8 detection kit (CCK-8, #K1018) provided by Apexbio (United States). In brief, cells were seeded in 96-wells plates at a density of 3 × 10^3/well for 24 h. Then, cells were treated with indicated concentrations of compounds for 72 h. Supernatant was totally removed, and 100 μL of CCK-8 solution was added to each well and cultured for another 1 h at 37°C. The absorbance of plates was measured by SpectraMax M2 (Molecular Devices, San Jose, CA, United States) at 450 nm. […] Assays were performed on three independent experiments.
# PC9 cells [1] = test: Anti-proliferation activity assay (CCK-8); format: cell-based; conditions: Homo sapiens, PC-9, 72 h
# Protocol: as §1
# PC9 cells [2] = test: Cell cycle analysis (PI staining flow cytometry); format: cell-based, human; conditions: 500 nM, 24 h, compared to blank group
# Protocol: (§2) For cell cycle detection, Cells were harvested and gently washed with PBS, and fixed with 70% cold ethanol −20°C overnight. After centrifugation, Cells were retained for precipitation and incubated with PI/RNase Staining Buffer (BD Bioscience, Oxford, United Kingdom) for 15 min in the dark at 37°C.
# (§3) All samples were acquired by flow cytometry (FACS CantoⅡ, BD Bioscience) and analysed with Flowjo software version 10.4.
# A549 cells [3] = test: Cell cycle analysis (PI staining flow cytometry); format: cell-based, human; conditions: 2 μM, 24 h
# Protocol: as §2, §3
# PC9 cells [4] = test: Cell apoptosis analysis (Annexin V/PI flow cytometry); format: cell-based, human; conditions: 500 nM, 72 h; for percentage of apoptotic cells (early apoptosis + late apoptosis): blank control 13.24%
# Protocol: (§4) For apoptosis detection, Cells were performed with Pharmingen FITC Annexin V Detection KitⅠ(BD Bioscience, Oxford, UK). Briefly, Cells were harvested and washed once with 1×binding buffer and then incubated with Annexin V and Propidium Iodide (PI) for 15 min in the dark at 37°C.
# as §3
# A549 cells [5] = test: as above; format: cell-based, human; conditions: 2 μM, 72 h; for percentage of apoptotic cells (early apoptosis + late apoptosis): blank control 9.86%
# Protocol: as §4, §3
# Bel-7402 cells = test: Anti-proliferation activity assay (CCK-8); format: cell-based; conditions: Homo sapiens, 72 h
# Protocol: as §1
# A549 cells [6] = test: Anti-proliferation activity assay (CCK-8); format: cell-based; conditions: Homo sapiens, 72 h
# Protocol: as §1
# Sequence of WEE1 kinase (P30291 whole entry): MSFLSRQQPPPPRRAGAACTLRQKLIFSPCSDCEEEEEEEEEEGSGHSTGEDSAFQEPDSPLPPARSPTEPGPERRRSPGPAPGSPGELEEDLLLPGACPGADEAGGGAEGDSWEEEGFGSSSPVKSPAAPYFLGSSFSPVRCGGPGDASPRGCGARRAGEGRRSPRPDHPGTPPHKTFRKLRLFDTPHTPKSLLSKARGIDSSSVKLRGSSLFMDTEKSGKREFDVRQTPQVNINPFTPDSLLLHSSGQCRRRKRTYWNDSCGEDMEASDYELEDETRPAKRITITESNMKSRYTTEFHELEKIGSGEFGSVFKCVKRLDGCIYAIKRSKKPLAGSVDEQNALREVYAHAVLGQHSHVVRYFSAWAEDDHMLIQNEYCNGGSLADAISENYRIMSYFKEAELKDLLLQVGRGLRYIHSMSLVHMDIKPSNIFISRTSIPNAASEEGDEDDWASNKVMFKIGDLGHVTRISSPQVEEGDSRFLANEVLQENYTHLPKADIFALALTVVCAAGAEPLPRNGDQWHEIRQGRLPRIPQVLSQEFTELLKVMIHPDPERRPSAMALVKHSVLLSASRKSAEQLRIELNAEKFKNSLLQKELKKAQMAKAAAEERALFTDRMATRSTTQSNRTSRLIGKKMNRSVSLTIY
compound,measurement,setting,value
"CCN1CCN(C(=O)Cc2ccc(Nc3ncc(F)c(Nc4ccc(C(=O)Nc5ccccc5Cl)cc4)n3)cc2)CC1 [Compound 8, TCS7010]",IC50,WEE1 kinase,0.797 µM
same,Inhibition Rate,WEE1 kinase,95.45 ± 2.24%
same,inhibition at 25 µM,WEE1 kinase,~100%
"CCN1CCN(Cc2ccc(-c3cc4c(N[C@H](C)c5ccccc5)ncnc4[nH]3)cc2)CC1 [Compound 2, AEE788]",IC50,WEE1 kinase,0.103 µM
same,Inhibition Rate,WEE1 kinase,134.70 ± 1.61%
"COc1cc(-c2cc(-c3ccc(N4CCNCC4)cc3)cnc2C)cc(OC)c1OC [Compound 10, LDN-214117]",inhibition at 25 µM,WEE1 kinase,32.77 ± 0.22%
"CNC(=O)c1nn(C)c2c1C(C)(C)Cc1cnc(Nc3ccc(N4CCN(C)CC4)cc3)nc1-2 [Compound 5, Milciclib]",IC50,WEE1 kinase,0.00377 µM
same,Inhibition Rate,WEE1 kinase,137.84 ± 1.08%
same,IC50,"HuH-7 cells; Homo sapiens, Huh-7, 72 h",80 µM
same,IC50,PC9 cells [1],8.88 µM
Denfivontinib [Compound 1],Inhibition Rate,WEE1 kinase,64.18 ± 1.16%
"CNC(=O)c1ccccc1Nc1nc(Nc2ccc(N3CCN(CCCN)CC3)cc2)ncc1Cl [Compound 4, GSK3182571]",IC50,WEE1 kinase,0.00107 µM
same,Inhibition Rate,WEE1 kinase,126.59 ± 1.66%
same,proportion of cells in the G1 phase,PC9 cells [2],significantly increased
same,proportion of cells in the G2 phase,PC9 cells [2],did not change significantly
same,cell cycle distribution,A549 cells [3],no significant change
same,IC50,HuH-7 cells; 72 h,0.875 µM
same,IC50,"HuH-7 cells; Homo sapiens, Huh-7, 72 h",0.88 µM
same,Q1 (flow cytometry quadrant),PC9 cells [4],0.014
same,Q2% (late apoptosis rate),PC9 cells [4],4.55%
same,Q3% (early apoptosis rate),PC9 cells [4],80.2%
same,Q4 (flow cytometry quadrant),PC9 cells [4],15.2
same,percentage of apoptotic cells (early apoptosis + late apoptosis),PC9 cells [4],84.75%
same,Q2% (late apoptosis rate),A549 cells [5],8.55%
same,Q3% (early apoptosis rate),A549 cells [5],9.18%
same,Q4 (flow cytometry quadrant),A549 cells [5],82.2
same,percentage of apoptotic cells (early apoptosis + late apoptosis),A549 cells [5],17.73%
same,IC50,Bel-7402 cells,0.147 µM
same,IC50,A549 cells [6],5.17 µM
"C[C@@H](Oc1ccc2[nH]nc(/C=C/c3cnn(CCO)c3)c2c1)c1c(Cl)cncc1Cl [Compound 9, LY2874455]",inhibition at 25 µM,WEE1 kinase,58.2 ± 4.03%
"CNS(=O)(=O)c1ccccc1Nc1nc(Nc2ccc(N3CCN(C)CC3)cc2OC)ncc1Cl [Compound 3, ALK inhibitor 2]",IC50,WEE1 kinase,0.988 µM
same,Inhibition Rate,WEE1 kinase,127.17 ± 1.08%
"CN1CCCN(C(=O)c2cccc(-c3ccc(/C=C4/C(=O)Nc5ccc(Cl)cc54)o3)c2)CC1 [Compound 6, CX-6258 hydrochloride]",inhibition at 25 µM,WEE1 kinase,24.8 ± 2.33%
"C=CCn1c(=O)c2cnc(Nc3ccc(N4CCN(C)CC4)cc3)nc2n1-c1cccc(C(C)(C)O)n1 [AZD1775, Adavosertib, reference compound]",cell cycle distribution,A549 cells [3],no significant change
same,Q1 (flow cytometry quadrant),PC9 cells [4],0.015
same,Q2% (late apoptosis rate),PC9 cells [4],5.20%
same,Q3% (early apoptosis rate),PC9 cells [4],22.0%
same,Q4 (flow cytometry quadrant),PC9 cells [4],72.8
same,percentage of apoptotic cells (early apoptosis + late apoptosis),PC9 cells [4],27.20%
same,Q2% (late apoptosis rate),A549 cells [5],5.52%
same,Q3% (early apoptosis rate),A549 cells [5],11.1%
same,Q4 (flow cytometry quadrant),A549 cells [5],83.3
same,percentage of apoptotic cells (early apoptosis + late apoptosis),A549 cells [5],16.62%
